The results in this text go back to the NIST ThermoML archive (doi:10.1021/je2008445).

± gives the expanded uncertainty stated by the source.

For data set [1] the following is noted: Liquid, Ebulliometric method (Recirculating still).
The nature of data set [2]: refractive index (Na D-line) (dimensionless). The note with it: 298.15 K; 101.33 kPa; Liquid; Standard Abbe refractometry.

As a reminder, the vapor or sublimation pressure is the equilibrium pressure above the liquid or solid. The refractive index is the speed of light in vacuum divided by its phase velocity in the sample. In the case of `CCOC(C)=O` [ethyl acetate], the “vapor or sublimation pressure” value in data set [1] (350.23 K) amounted to 101.33 ± 1.6 kPa. The refractive index in data set [2] was 1.3712 ± 0.0005.
With `C[Si](C)(C)O[Si](C)(C)C` [hexamethyldisiloxane], the “vapor or sublimation pressure” value in data set [1] (372.73 K) amounted to 101.33 ± 1.6 kPa. Also, in data set [2], the refractive index was determined as 1.3737 ± 0.0005.
